# Data taken from the supplement of paper PMC11061612.
# How the values were obtained:
# Test in all cases: Bliss excess, mean over the matrix (fraction); higher = more synergy
# [1] = system: CAL-62 (Thyroid Gland Carcinoma)
# In short: (§1)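 After 24 hours at 37°C and 5% CO2 in 1536-well plates, cells in DMEM/F12 or RPMI plus 10% FBS received two-drug dose matrices for 72 hours. Viability came from CellTiter-Glo 2.0 luminescence and was scaled as inhibition, anchored at 0 by vehicle wells and at 1 by blank wells. Combination Emax is taken as the second-highest inhibition in the matrix, and Bliss excess as the observed combination effect less EA + EB − EA·EB, with EA and EB the single-agent effects.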
# [2] = system: LB996-RCC (Kidney Carcinoma)
# In short: as §1
# [3] = system: TE-8 (Esophageal Squamous Cell Carcinoma)
# In short: as §1
# [4] = system: OPM-2 (Plasma Cell Myeloma)
# In short: as §1
# [5] = system: LK-2 (Squamous Cell Lung Carcinoma)
# In short: as §1
# [6] = system: PC-3_[JPC-3] (Lung Adenocarcinoma)
# In short: as §1
# [7] = system: PANC-03-27 (Pancreatic Carcinoma)
# In short: as §1
# [8] = system: OAW-42 (Ovarian Carcinoma)
# In short: as §1
# [9] = system: RERF-LC-Sq1 (Squamous Cell Lung Carcinoma)
# In short: as §1
# [10] = system: L-1236 (Hodgkin's Lymphoma)
# In short: as §1
# [11] = system: RCM-1 (Colorectal Carcinoma)
# In short: as §1
# [12] = system: RERF-GC-1B (Gastric Carcinoma)
# In short: as §1
# [13] = system: KE-37 (T-Lymphoblastic Leukemia)
# In short: as §1
# [14] = system: COLO-680N (Esophageal Squamous Cell Carcinoma)
# In short: as §1
# [15] = system: NCI-H2342 (Lung Adenocarcinoma)
# In short: as §1
# [16] = system: A2058 (Melanoma)
# In short: as §1
# [17] = system: SHP-77 (Small Cell Lung Carcinoma)
# In short: as §1
# [18] = system: CAL-120 (Breast Carcinoma)
# In short: as §1
# [19] = system: LXF-289 (Lung Adenocarcinoma)
# In short: as §1
# [20] = system: 23132-87 (Gastric Carcinoma)
# In short: as §1
SMILES,Bliss excess [1],Bliss excess [2],Bliss excess [3],Bliss excess [4],Bliss excess [5],Bliss excess [6],Bliss excess [7],Bliss excess [8],Bliss excess [9],Bliss excess [10],Bliss excess [11],Bliss excess [12],Bliss excess [13],Bliss excess [14],Bliss excess [15],Bliss excess [16],Bliss excess [17],Bliss excess [18],Bliss excess [19],Bliss excess [20]
"CC(=O)Nc1cccc(-n2c(=O)n(C3CC3)c(=O)c3c(Nc4ccc(I)cc4F)n(C)c(=O)c(C)c32)c1 [Trametinib] + Cc1nc(-c2cn3c(n2)-c2ccc(-c4cnn(C(C)(C)C(N)=O)c4)cc2OCC3)n(C(C)C)n1 [Taselisib] (first compound max 1 µM, 7x7, partner max 10 µM)",0.15,0.0519,0.129,0.165,0.0821,0.166,0.156,0.109,0.0906,0.0881,0.0117,0.0909,0.0968,0.063,0.0446,0.104,0.107,0.0676,0.164,0.0654
"Cn1cnc2c(F)c(Nc3ccc(Br)cc3Cl)c(C(=O)NOCCO)cc21 [Selumetinib] + CC(C)n1c(=O)n(C)c2cnc3cc(F)c(-c4ccc(OCCCN5CCCCC5)nc4)cc3c21 [AZD1390] (first compound max 10 µM, 7x7, partner max 0.3 µM)",-0.0319,-0.0262,0.0186,-0.0153,0.007,-0.0445,0.01,-0.0392,0.0117,0.0284,-0.0495,0.0413,0.0255,-0.0022,-0.0489,-0.0155,-0.0038,-0.0388,-0.0312,-0.0449
"Cn1cnc2c(F)c(Nc3ccc(Br)cc3Cl)c(C(=O)NOCCO)cc21 [Selumetinib] + CCN(CCO)CCCOc1ccc2c(Nc3cc(CC(=O)Nc4cccc(F)c4)[nH]n3)ncnc2c1 [AZD2811] (first compound max 10 µM, 7x7, partner max 1 µM)",0.0427,-0.0359,-0.0471,0.0243,-0.0937,-0.0748,0.0374,-0.011,-0.0041,0.0086,-0.0259,0.0288,-0.0047,-0.0324,-0.0569,0.0945,0.0447,-0.0065,0.0253,-0.0264
"CN(CCO)CC[C@H](CSc1ccccc1)Nc1ccc(S(=O)(=O)NC(=O)c2ccc(N3CCC([C@@H](O)c4ccccc4-c4ccc(Cl)cc4)CC3)cc2)cc1S(=O)(=O)C(F)(F)F [AZD4320] + C[C@@H]1COCCN1C2=NC(=NC(=C2)C3(CC3)[S@](=N)(=O)C)C4=C5C=CNC5=NC=C4 [AZD6738] (first compound max 1 µM, 7x7, partner max 10 µM)",0.0112,-0.0179,-0.0357,-0.0534,-0.0267,-0.0469,-0.0392,-0.0315,-0.0082,0.0169,-0.0391,0.072,-0.0133,-0.0302,-0.0429,-0.0088,-0.0032,-0.0313,0.0029,0.0832
"NC1(C(=O)N[C@@H](CCO)c2ccc(Cl)cc2)CCN(c2ncnc3[nH]ccc23)CC1 [Capivasertib] + C[C@@H]1COCCN1C2=NC(=NC(=C2)C3(CC3)[S@](=N)(=O)C)C4=C5C=CNC5=NC=C4 [AZD6738] (first compound max 10 µM, 7x7, partner max 10 µM)",-0.0306,-0.0418,-0.0784,-0.0746,-0.0189,-0.0356,-0.0537,0.0034,-0.0719,-0.0645,-0.0863,-0.0076,-0.0061,-0.0158,-0.0709,-0.0262,-0.0078,-0.0283,-0.0889,0.0024
"CC(=O)c1c(C)c2cnc(Nc3ccc(N4CCNCC4)cn3)nc2n(C2CCCC2)c1=O [Palbociclib] + CC1(C)CCC(CN2CCN(c3ccc(C(=O)NS(=O)(=O)c4ccc(NCC5CCOCC5)c([N+](=O)[O-])c4)c(Oc4cnc5[nH]ccc5c4)c3)CC2)=C(c2ccc(Cl)cc2)C1 [Venetoclax] (first compound max 10 µM, 7x7, partner max 1 µM)",-0.029,0.0044,-0.0784,0.017,-0.0179,-0.0487,-0.0545,-0.0365,0.0475,0.0003,-0.0717,-0.048,0.0258,-0.0445,-0.0564,-0.0231,0.0543,-0.0523,-0.0189,-0.0416
"NC1(C(=O)N[C@@H](CCO)c2ccc(Cl)cc2)CCN(c2ncnc3[nH]ccc23)CC1 [Capivasertib] + CC(=O)c1c(C)c2cnc(Nc3ccc(N4CCNCC4)cn3)nc2n(C2CCCC2)c1=O [Palbociclib] (first compound max 10 µM, 7x7, partner max 10 µM)",0.0169,0.0312,-0.0254,0.0472,0.0401,0.002,-0.0187,-0.0305,0.0352,-0.0829,-0.0058,-0.0203,0.0024,-0.0467,0.0214,-0.0001,-0.142,-0.0221,0.0199,-0.0183
"NC1(C(=O)N[C@@H](CCO)c2ccc(Cl)cc2)CCN(c2ncnc3[nH]ccc23)CC1 [Capivasertib] + Cn1cnc2c(F)c(Nc3ccc(Br)cc3Cl)c(C(=O)NOCCO)cc21 [Selumetinib] (first compound max 10 µM, 7x7, partner max 10 µM)",0.0695,0.0146,-0.0324,0.0515,0.0313,0.0268,0.0728,0.0028,0.0005,0.0433,0.019,0.0077,0.0803,0.028,0.0891,0.108,-0.0045,0.0219,0.0075,0.0687
"CC(=O)c1c(C)c2cnc(Nc3ccc(N4CCNCC4)cn3)nc2n(C2CCCC2)c1=O [Palbociclib] + Cc1c2c(nn1C)CSCc1cc(n(C)n1)CSc1cc(c3ccccc3c1)OCCCc1c(C(=O)O)n(C)c3c-2c(Cl)ccc13 [AZD5991] (first compound max 10 µM, 7x7, partner max 1 µM)",-0.0047,-0.0238,-0.108,0.0009,0.0076,-0.0377,-0.0242,0.0143,-0.0228,-0.0341,-0.0561,-0.0116,0.0783,-0.0341,-0.0063,0.0085,-0.0247,-0.0209,0.008,-0.198
"COc1nnc2ccc(N3CCC(c4ccc(OCCN5CCN(C)C(=O)[C@H]5C)cc4)CC3)nn12 [AZD5153] + Cc1c2c(nn1C)CSCc1cc(n(C)n1)CSc1cc(c3ccccc3c1)OCCCc1c(C(=O)O)n(C)c3c-2c(Cl)ccc13 [AZD5991] (first compound max 1 µM, 7x7, partner max 1 µM)",-0.057,0.0015,0.0322,-0.0062,0.0184,-0.0149,-0.0183,0.0444,-0.0393,0.0283,-0.0512,0.0602,0.116,-0.0205,0.0192,0.067,0.0387,0.0048,0.0019,0.0791
"Cc1nc(Nc2ncc(C(=O)Nc3c(C)cccc3Cl)s2)cc(N2CCN(CCO)CC2)n1 [Dasatinib] + CC(=O)Nc1cccc(-n2c(=O)n(C3CC3)c(=O)c3c(Nc4ccc(I)cc4F)n(C)c(=O)c(C)c32)c1 [Trametinib] (first compound max 2 µM, 7x7, partner max 1 µM)",0.163,-0.0527,-0.0436,0.0108,0.0113,-0.0708,0.0178,0.0199,-0.179,0.008,0.018,0.0784,-0.0125,0.0389,-0.0578,0.005,-0.0238,0.032,-0.0439,-0.045
"Cc1c2c(nn1C)CSCc1cc(n(C)n1)CSc1cc(c3ccccc3c1)OCCCc1c(C(=O)O)n(C)c3c-2c(Cl)ccc13 [AZD5991] + C[C@@H](Nc1cc(F)cc(F)c1)c1cc(C(=O)N(C)C)cc2c(=O)cc(N3CCOCC3)oc12 [AZD8186] (first compound max 1 µM, 7x7, partner max 3 µM)",,0.0208,-0.013,-0.0104,0.0056,0.0031,-0.0432,0.0262,-0.0353,0.0233,-0.0102,-0.0188,-0.0459,0.0001,-0.0027,0.119,-0.0379,-0.0318,-0.0127,-0.0603
